{"source": "patent US20120277147A1", "about": "“PREVENTION OF HYPOGLYCAEMIA IN DIABETES MELLITUS TYPE 2 PATIENTS” (priority 2011, published 2012)", "origin": "cited, not measured here", "test_system": "patients with type 2 diabetes treated with metformin and a sulfonylurea", "conditions": "30 week; patients unable to achieve adequate glycemic control with combined metformin-sulfonylurea therapy", "data": [{"substance": "Exendin-4: native exendin peptide, SEQ ID NO: 2 (39 AS), which can lower blood glucose concentration", "values": [{"measurement": "Effect on HbA1c", "result": "significantly reduced HbA1c"}]}]}
